We go through four compounds from US20130317052A1, “QUINOLINE DERIVATIVE COMPOUND, METHOD FOR PREPARING SAME, AND PHARMACEUTICAL COMPOSITION CONTAINING SAME” (Dong-A ST Co., Ltd., priority 2010, published 2013).

The target in one assay is T1, serotonin-1B receptor (Rattus norvegicus, UniProt P28564).
T1 construct: cell membranes of the cerebral cortex excised from male Winstar rats; from tissue; host or cells: rat cerebral cortex membranes
In words: Assay for affinity for serotonin-1B receptor: competitive inhibition of [125I]cyanopindolol binding to rat cerebral cortex membranes. Conditions: 10 μM compound, 10 pM [125I]cyanopindolol, mean of two experiments. How it is done:
Compounds of the present invention were examined for affinity for the serotonin-1B receptor which can exert a relaxation effect on the stomach to relieve impaired gastric accommodation of functional dyspepsia patients in response to an agonist.
In a Tris-HCl buffer (50 mM Tris-HCl, pH 7.4, 120 mM NaCl, 5 mM KCl, 2 mM CaCl2, 1 mM MgCl2), 4 mg of cell membranes of the cerebral cortex excised from male Winstar rats, each weighing 175±25 g, was incubated at 37° C. for 1.5 hrs with 10 pM of ^125[I] cyanopindolol (PerkinElmer, 100 μCi) and 10 μM of the compound of interest of the present invention per well. After completion of the incubation, the incubation mixture was filtered through Whatman GF/B filter (unifilter-96, Lot: 6005177, PerkinElmer) to separate ligand-bound receptors. These bound receptors were washed three times with 5 mL of a Tris-HCl buffer. Then, 10 mL of a scintillation cocktail (Lot: 03999, Fluka) was added and reacted for 16 hrs or longer to measure radiation activity using a beta-counter (Packcard) in order to calculate the quantity of ^125[I] cyanopindolol bound to the receptor.
Meanwhile, 10 μM of serotonin (H9523, Sigma) was incubated in the presence of 10 pM of ^125[I] cyanopindolol to determine a nonspecific binding value. The experiment was independently carried out twice, and receptor affinity was calculated using the following Equation 2. […]

For assay [1], the target named is T2, dopamine-D2 receptor (human dopamine D2s) (Homo sapiens, UniProt P14416).
T2 construct: expressed in transfected cells; host or cells: CHO cells
In words: Assay for affinity for dopamine receptor: competitive inhibition of [3H]spiperone binding. Conditions: 10 μM compound; 0.16 nM [3H]spiperone; CHO cells transfected with human dopamine D2s gene; mean of two experiments. The method, then:
Affinity of the compounds of the present invention for the dopamine-D2 receptor, which is found in the wall of the gastric tract of mammals and inhibits gastrointestinal motility, was determined by measuring competitive inhibition against the binding to the receptor of a radio-labeled ligand which is known for its affinity for the receptor. In this regard, the experiment was performed according to the method described in [Heys G et al. Mol Endocrinol. 6:920, 1992] and [Grandy D K et al. Proc Natl Acad Sci USA. 86:9762, 1989].
In tris-HCl buffer ([…], pH 7.4, 120 mM NaCl, 5 mM KCl, 2 mM CaCl2, 1 mM MgCl2) 150 μg of Chinese hamster ovary (CHO) cells transfected with a human dopamine D2s gene were incubated at 25° C. for 120 min with 0.16 nM of tritium Spiperone (^3[H] Spiperon [NEN, 250 μCi]) and 10 μM of the compound of interest of the present invention. After completion of the reaction, the reaction mixture was filtered through Whatman GF/B filter (unifilter-96, Lot: 6005177, PerkinElmer) to separate ligand-bound receptors. These bound receptors were washed three times with a Tris-HCl buffer. Then 10 mL of a scintillation cocktail (Lot: 03999, Fluka) was added and reacted for 16 hrs or longer to measure radiation activity using a beta-counter (Packcard) in order to calculate the quantity of tritium spiperone bound to the receptor. Meanwhile, 10 μM of Haloperidol (H1512, Sigma) was incubated in the presence of 0.16 nM tritium Spiperone to determine a nonspecific binding value. The experiment was independently carried out twice, and receptor affinity was calculated using the following Equation 1.
Receptor Affinity(%)={(Total CPM−Nonspecific Binding CPM−CPM of tritium Spiperone remaining after addition of interest compound of the present invention)/(Total CPM−Nonspecific Binding CPM)}×100 Equation 1
(CPM: counter per minute)

Assay [2] can be described thus: Gastric emptying effect on normal rat, semi-solid test meal. Format: in vivo, Sprague-Dawley rats. Conditions: for Gastric Emptying (%): 45 min before test meal, stomach weighed 35 min after meal. How it is done: Gastric emptying activity of the compounds of the present invention was examined in the following experiment.
Sprague-Dawley rats, each weighing 200˜250 g, were acclimated for one week at a temperature of 22˜24° C. and a humidity of 60-80% while a standard diet and water were provided, and then were divided into groups according to weight. Thereafter, they were starved for 24 hrs before an experiment while water was provided. From 3 hrs before the experiment, no more water was provided. […] For control 1, only 1 mL of a 3% hydroxypropylmethyl cellulose solution was used while sisapride was orally administered at a dose of 1 mg/kg in 1 mL of a 3% hydroxypropylmethyl cellulose to control 2.
After 45 min, a semi-solid test meal prepared by mashing feeds in water, was orally administered in an amount of 2 mL to each rat. After 35 min, the SD rats were killed, and the stomach containing the semi-solid test meal was excised, and weighed. Subsequently, the stomach was washed with distilled water to remove the gut content, dried, and weighed again, in order to calculate the weight of the semi-solid test meal left in the gut.
Gastric Emptying(%)=[1−(weight of semi-solid test meal left in gut/weight of semi-solid test meal at 0-time)]×100 [Equation 3]
(weight of semi-solid test meal at 0-time means weight of the semi-solid test meal left in the rat killed immediately after the administration of the semi-solid test meal)

Molecules are shown by their SMILES.

T2 sequence (P14416 1-414 isoform P14416-2): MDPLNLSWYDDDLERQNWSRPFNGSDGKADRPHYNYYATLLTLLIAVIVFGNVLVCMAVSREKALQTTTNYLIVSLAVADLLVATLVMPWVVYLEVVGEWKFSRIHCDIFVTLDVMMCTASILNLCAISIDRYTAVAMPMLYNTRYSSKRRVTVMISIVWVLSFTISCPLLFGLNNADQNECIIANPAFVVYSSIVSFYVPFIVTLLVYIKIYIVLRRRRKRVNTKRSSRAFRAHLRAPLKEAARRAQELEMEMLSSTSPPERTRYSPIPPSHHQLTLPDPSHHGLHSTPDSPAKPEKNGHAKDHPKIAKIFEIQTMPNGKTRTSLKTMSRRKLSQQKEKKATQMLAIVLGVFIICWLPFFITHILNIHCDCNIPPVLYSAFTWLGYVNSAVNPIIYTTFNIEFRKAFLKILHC
T1 sequence (P28564 whole entry): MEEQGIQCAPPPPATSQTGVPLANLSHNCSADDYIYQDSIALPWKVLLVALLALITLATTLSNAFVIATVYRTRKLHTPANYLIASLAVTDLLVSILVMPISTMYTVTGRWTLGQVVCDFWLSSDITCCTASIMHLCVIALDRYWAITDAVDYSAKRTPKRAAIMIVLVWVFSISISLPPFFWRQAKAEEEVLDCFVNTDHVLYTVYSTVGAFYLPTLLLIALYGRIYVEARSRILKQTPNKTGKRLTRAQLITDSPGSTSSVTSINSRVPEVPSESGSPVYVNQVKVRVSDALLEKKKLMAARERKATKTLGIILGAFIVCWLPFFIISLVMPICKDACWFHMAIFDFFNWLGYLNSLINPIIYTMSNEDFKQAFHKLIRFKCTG

In the case of `COc1cc2c(cc1Oc1cc3c(cc1OC)-c1c(OC)c(OC)cc4ccnc(c14)C3=O)CCN1Cc3c(ccc(OC)c3OC)C[C@@H]21` [Compound of Example 1, (S)-1,2,10-Trimethoxy-9-(2,9,10-trimethoxy-5,8,13,13a-tetrahydro-6H-isoquino[3,2-a]isoquinolin-3-yloxy)-dibenzo[de,g]quinolin-7-one], the “Affinity (%)” value stood at 61% on serotonin-1B receptor and 91% in assay [1]. The “Gastric Emptying (%)” value in assay [2] (10 μg/kg oral) stood at 62.3%. Moreover, the “increase of gastric emptying compared to control 1 (no drug)” value in assay [2] (10 μg/kg oral, normal rat) was “roughly two-fold”.

For `COc1cc2c(cc1Oc1cc3c(cc1OC)CC[n+]1cc4c(OC)c(OC)ccc4cc1-3)C[C@@H]1NCCc3cc(OC)c(OC)c-2c31` [Compound of Example 2, (S)-3,9,10-Trimethoxy-2-(1,2,10-trimethoxy-5,6,6a,7-tetrahydro-4H-dibenzo[de,g]quinolin-9-yloxy)-5,6-dihydro-isoquino[3,2-a]isoquinolinylium], the “Affinity (%)” value stood at 35% at serotonin-1B receptor and 25% in assay [1]. In addition, the “Gastric Emptying (%)” value in assay [2] (10 μg/kg oral) is 47.3%.

On to `COc1cc(N)c(Cl)cc1C(=O)NC1CCN(CCCOc2ccc(F)cc2)CC1OC` (stereo not drawn) [Control 2, sisapride, reference compound], for which the “Gastric Emptying (%)” value in assay [2] (10 mg/kg oral (Table 3)) is 68.9%.

As for `COc1ccc(C(=O)NCc2ccc(OCCN(C)C)cc2)cc1OC` [Itopride, reference compound], the “Affinity (%)” value in assay [1] amounted to 75%.
